Tested on: mixed fungal spore suspension of Alternaria alternata, Aureobasidium pullulans, Cladosporium herbarum, Phoma violacea, and Stemphylium dendriticum
Assay: Evaluation as a paint film fungicide (acrylic emulsion paint on wooden test pieces, spray inoculated)
Format: cell-based
Settings: 25°C, four weeks, two scores per cell; for Fungal Growth L2: L2 (leached for two days); for Fungal Growth UL: UL (test pieces not leached); for Fungal Growth L1: L1 (leached with water spray for one day)
Protocol: In the following examples, the compositions obtained were subjected to microbiological evaluation as paint film fungicides. The compositions were also tested for anti-algal properties. The microbiological testing was effected as follows: The products were tested for activity against fungi which were one or more of Alternaria alternata, Aureobasidum pullulans, Cladosporium herbarum, Phoma violacea and Stemphylium dendriticum.
The compositions to be tested were obtained as described in Examples 1 to 6 and the Comparative Examples. The compositions were added as a solid blend to samples of an exterior acrylic emulsion paint (based on Revacryl 1A latex at pH 9) in glass bottles and mixed to give final active ingredient levels in the paint of 1.0, 0.5 and 0.25% w/v.
The bottles containing paint plus biocide composition were sealed and stored at 40°C for three days.
Small wooden test pieces were prepared for each paint composition by priming and then brushing on two full even coats.
One set of the coated test pieces was stored at ambient temperature in the dark. A further set of coated test pieces was placed in a leaching device in which the test pieces were sprayed with water for one day and the test pieces were removed from the leaching device and dried. Yet a further set of coated test pieces was subjected to leaching for two days.
The coated test pieces were then transferred to a high humidity chamber. Each test piece was then spray inoculated with a mixed fungal spore suspension of Alternaria alternata, Aureobasidium pullulans, Cladosporium herbarum, Phoma violacea, and Stemphylium dendriticum.
Incubation was carried out at 25°C for four weeks. After this period the paint films were examined for fungal growth by naked eye and by stereo optical microscope.
The compositions of Examples 1 to 6 and the Comparative Examples were evaluated as paint film fungicides using the technique described previously herein. For comparative purposes paints containing only tetrachloroisophthalonitrile (NC); 3-(3,4-dichlorophenyl)-1,1-dimethylurea (DU); 2,3,5,6-thetrachloro-4-(methylsulphonyl) pyridine (DS); di-iodomethyl-4-methylphenylsulphone (AM); or zinc oxide (ZO) were also evaluated under the same conditions.

[1] = 0.25% w/v active ingredient in paint
[2] = 0.5% w/v active ingredient in paint
[3] = 1.0% w/v active ingredient in paint

Compound | Fungal Growth L2 [1] | Fungal Growth UL [1] | Fungal Growth L2 [2] | Fungal Growth UL [2] | Fungal Growth L2 [3] | Fungal Growth UL [3] | Fungal Growth L1 [1] | Fungal Growth L1 [2] | Fungal Growth L1 [3]
Cc1ccc(S(=O)(=O)C(I)I)cc1 [AM, di-iodomethyl-4-methylphenylsulphone] | 4,4 | 0,0 | 1,2 | 0,0 | 0,0 | 0,0 | – | – | –
CS(=O)(=O)c1c(Cl)c(Cl)nc(Cl)c1Cl [DS, 2,3,5,6-tetrachloro-4-(methylsulphonyl)pyridine] | 5,4 | 2,2 | 2,3 | 1,1 | 1,0 | 0.1 | – | – | –
CN(C)C(=O)Nc1ccc(Cl)c(Cl)c1 [DU, 3-(3,4-dichlorophenyl)-1,1-dimethylurea] | – | – | – | – | 5,5 | 5,5 | – | – | –
N#Cc1c(Cl)c(Cl)c(Cl)c(C#N)c1Cl [NC, tetrachloroisophthalonitrile] | 5,5 | 3,4 | 3,5 | 2,3 | 4,5 | 0,0 | 4,4 | 4,5 | 2,5

— patent EP0345955B1, “Anti-microbial composition and use thereof” (IMPERIAL CHEMICAL INDUSTRIES PLC, priority 1988, dated 1989)
